From US20230339977A1, “SUBSTITUTED HETEROARYL COMPOUND, AND COMPOSITION AND APPLICATION THEREOF” (SUNSHINE LAKE PHARMA CO., LTD., priority 2020, published 2023)

system: JAK1/TYK2; assay: Cell level activity test of JAK1/TYK2 (IFN-α induced STAT3 phosphorylation in PBMC); assay type: cell-based; conditions: Homo sapiens; P-STAT3 by ELISA in PBMC, compound 1 h, IFN-α 5000 U/mL 15 min; read-out: IC50 nM (JAK 1 /TYK2)
Protocol: IFN-α can induce the phosphorylation of STAT3 downstream of JAK1/TYK2 in PBMC, and by measuring the level of STAT3 phosphorylation, the activity of the compound on JAK1/TYK2 at the cell level can be reflected.
Whole blood was collected from healthy subjects, anticoagulated with heparin sodium, and PBMC (human peripheral blood mononuclear cells) were extracted. PBMC were seeded in a 96-well culture plates at a density of 1*106/well. Positive wells and negative wells were added with the same volume of DMSO as the compound, and the final concentration of DMSO was 0.5%. The compounds were incubated with the cells at 37° C. for 1 h, and then stimulated by adding IFN-α at a final concentration of 5000 U/mL, an equal volume of medium was added to the negative wells, and incubated for 15 min. The cells were centrifuged to remove the supernatant, then lysed, and P-STAT3 was measured according to the instructions of the ELISA kit, the absorbance was read at 450 nm, and the IC50 value or inhibition rate was calculated.

Compared with `COCCOc1cc(-c2cn(C)c3cnc(NC(C)=O)cc23)nc2c1CCOC21CCOC1` (stereo not drawn) [Example 15, N-(3-(4′-(2-Methoxyethoxy)-4,5,5′,6′-Tetrahydro-2H-Spiro[Furan-3,8′-Pyrano [3,4-b]Pyridin]-2′-yl)-1-Methyl-1H-Pyrrolo[2,3-c]Pyridin-5-yl)Acetamide], `COCCCOc1cc(-c2cn(C)c3cnc(NC(C)=O)cc23)nc2c1CCOC21CCOC1` (stereo not drawn) [Example 22, N-(3-(4′-(3-Methoxypropoxy)-4,5,5′,6′-Tetrahydro-2H-Spiro[Furan-3,8′-Pyrano[3,4-b]Pyridin]-2′-yl)-1-Methyl-1H-Pyrrolo[2,3-c]Pyridin-5-yl)Acetamide] is 6.7-fold lower in IC50: 48.6 nM for the first, 7.23 nM for the second.

`CC(=O)Nc1cc2c(-c3cc(OCCCN(C)C)c4c(n3)C3(CCOC3)OCC4)cn(C)c2cn1` (stereo not drawn) [Example 29, N-(3-(4′-(3-(Dimethylamino)Propoxy)-4,5,5′,6′-Tetrahydro-2H-Spiro[Furan-3, 8′-Pyrano[3,4-b]Pyridin]-2′-yl)-1-Methyl-1H-Pyrrolo[2,3-c]Pyridin-5-yl)Acetamide] and `CC(=O)Nc1cc2c(-c3cc(OCCN(C)C)c4c(n3)C3(CCOC3)OCC4)cn(C)c2cn1` (stereo not drawn) [Example 19, N-(3-(4′-(2-(Dimethylamino)Ethoxy)-4,5,5′,6′-Tetrahydro-2H-Spiro[Furan-3,8′ -Pyrano[3,4-b]Pyridine]-2′-yl)-1-Methyl-1H-Pyrrolo[2,3-c]Pyridin-5-yl)Acetamide] are within 1.5-fold of each other in IC50: 93.1 nM for the first, 115 nM for the second.

`CC(=O)Nc1cc2c(-c3cc(N(C)C)c4c(n3)C3(CCOC3)OCC4)cn(C)c2cn1` (stereo not drawn) [Example 24, N-(3-(4′-(Dimethylamino)-4,5,5′,6′-Tetrahydro-2H-Spiro[Furan-3,8′-Pyrano[3,4-b]Pyridin]-2′-yl)-1-Methyl-1H-Pyrrolo[2,3-c]Pyridin-5-yl)Acetamide] and `CC(=O)Nc1cc2c(-c3cc(Cl)c4c(n3)C3(CCOC3)OCC4)cn(C)c2cn1` (stereo not drawn) [Example 21, N-(3-(4′-Chloro-4,5,5′,6′-Tetrahydro-2H-Spiro[Furan-3,8′-Pyrano[3,4-b]Pyridine]-2′-yl)-1-Methyl-1H-Pyrrolo[2,3-c]Pyridin-5-yl)Acetamide] are within 1.5-fold of each other in IC50: 29.9 nM for the first, 36.9 nM for the second.

`CC(=O)Nc1cc2c(-c3cc(OC(C)C)c4c(n3)C3(CCOC3)OCC4)cn(C)c2cn1` (stereo not drawn) [Example 17, N-(3-(4′-Isopropoxy-4,5,5′,6′-Tetrahydro-2H-Spiro[Furan-3,8′-Pyrano[3,4-b]P yridine]-2′-yl)-1-Methyl-1H-Pyrrolo[2,3-c]Pyridin-5-yl)Acetamide] and `COc1cc(-c2cn(C)c3cnc(NC(C)=O)cc23)nc2c1CCOC21CCOC1` (stereo not drawn) [Example 5, N-(3-(4′-Methoxy-4,5,5′,6′-Tetrahydro-2H-Spiro[Furan-3,8′-Pyrano[3,4-b]Pyridin]-2′-yl)-1-Methyl-1H-Pyrrolo[2,3-c]Pyridin-5-yl)Acetamide] are within 1.5-fold of each other in IC50: 126 nM for the first, 178 nM for the second.

First: CC(=O)Nc1cc2c(-c3cc(C#N)c4c(n3)C3(CCOC3)OCC4)cn(C)c2cn1 (stereo not drawn) [Example 25, N-(3-(4′-Cyano-4,5,5′,6′-Tetrahydro-2H-Spiro[Furan-3,8′-Pyrano[3,4-b]Pyridine]-2′-yl)-1-Methyl-1H-Pyrrolo[2,3-c]Pyridin-5-yl)Acetamide]
Second: CC(=O)Nc1cc2c(-c3cc(C(F)F)c4c(n3)C3(CCOC3)OCC4)cn(C)c2cn1 (stereo not drawn) [Example 7, N-(3-(4′-(Difluoromethyl)-4,5,5′,6′-Tetrahydro-2H-Spiro[Furan-3,8′-Pyrano[3,4-b]Pyridin]-2′-yl)-1-Methyl-1H-Pyrrolo[2,3-c]Pyridin-5-yl)Acetamide]
The IC50 of the first is 3.2-fold higher: 45.5 nM for the first, 14.1 nM for the second. The second is the more potent here.

First: COCc1cc(-c2cn(C)c3cnc(NC(C)=O)cc23)nc2c1CCOC21CCOC1 (stereo not drawn) [Example 8, N-(3-(4′-(Methoxymethyl)-4,5,5′,6′-Tetrahydro-2H-Spiro[Furan-3,8′-Pyrano[3,4-b]Pyridin]-2′-yl)-1-Methyl-1H-Pyrrolo[2,3-c]Pyridin-5-yl)Acetamide]
Second: CC(=O)Nc1cc2c(-c3cc(S(C)(=O)=O)c4c(n3)C3(CCOC3)OCC4)cn(C)c2cn1 (stereo not drawn) [Example 23, N-(1-meThyl-3-(4′-(Methylsulfonyl)-4,5,5′,6′-Tetrahydro-2H-Spiro[Furan-3,8′-Pyrano[3,4-b]Pyridin]-2′-yl)-1H-Pyrrolo[2,3-c]Pyridin-5-yl)Acetamide]
The IC50 of the first is 2.5-fold lower: 41.2 nM for the first, 104 nM for the second. The first is the more potent here.

Going from `COC(C)(C)CCOc1cc(-c2cn(C)c3cnc(NC(C)=O)cc23)nc2c1CCOC21CCOC1` (stereo not drawn) [Example 27, N-(3-(4′-(3-Methoxy-3-Methylbutoxy)-4,5,5′,6′-Tetrahydro-2H-Spiro[Furan-3, 8′-Pyrano[3,4-b]Pyridin]-2′-yl)-1-Methyl-1H-Pyrrolo[2,3-c]Pyridin-5-yl)Acetamide] to `CCCCOc1cc(-c2cn(C)c3cnc(NC(C)=O)cc23)nc2c1CCOC21CCOC1` (stereo not drawn) [Example 20, N-(3-(4′-Butoxy-4,5,5′,6′-Tetrahydro-2H-Spiro[Furan-3,8′-pyrAno[3,4-b]Pyridine]-2′-yl)-1-Methyl-1H-Pyrrolo[2,3-c]Pyridin-5-yl)Acetamide], the IC50 rises from 13.1 nM to 64.9 nM (5-fold).

First: COC1(c2cccc(-c3cn(C)c4cnc(NC(C)=O)cc34)n2)CCOC1 (stereo not drawn) [Control compound, reference compound]
Second: CC(=O)Nc1cc2c(-c3ccc4c(n3)C3(CCOC3)OCN4C)cn(C)c2cn1 (stereo not drawn) [Example 9, N-(1-Methyl-3-(1′-Methyl-1′,2′,4,5-Tetrahydro-2Hspiro[Furan-3,4′-Pyrido[3,2-d][1,3]Oxazin]-6′-yl)-1H-Pyrrolo[2,3-c]Pyridin-5-yl)Acetamide]
The IC50 of the first is 2.2-fold lower: 52.7 nM for the first, 114 nM for the second. The first is the more potent here.

First: CC(=O)Nc1cc2c(-c3ccc4c(n3)C3(CCCOC3)OC4)cn(C)c2cn1 (stereo not drawn) [Example 11, N-(3-(5′,6′-Dihydro-2′H,4′H,5H-Spiro[Furo[3,4-b]Pyridin-7,3′-Pyran]-2-yl)-1-Methyl-1H-Pyrrolo[2,3-c]Pyridin-5-yl)Acetamide]
Second: CC(=O)Nc1cc2c(-c3ccc4c(n3)C3(CCOC3)OCC4(F)F)cn(C)c2cn1 (stereo not drawn) [Example 18, N-(3-(5′,5′-Difluoro-4,5,5′,6′-Tetrahydro-2H-Spiro[Furan-3,8′-Pyrano[3,4-b]P yridine]-2′-yl)-1-Methyl-1H-Pyrrolo[2,3-c]Pyridin-5-yl)Acetamide]
The IC50 of the first is higher: over 1000 nM for the first, 19.6 nM for the second. The second is the more potent here.

First: CC(=O)Nc1cc2c(-c3ccc4c(n3)C3(CCOC3)OC(C)(C)N4C)cn(C)c2cn1 (stereo not drawn) [Example 13, N-(1-Methyl-3-(1′,2′,2′-Trimethyl-1′,2′,4,5-Tetrahydro-2H-Spiro[Furan-3,4′-P yrido[3,2-d][1,3]Oxazin]-6′-yl)-1H-Pyrrolo[2,3-c]Pyridin-5-yl)Acetamide]
Second: CC(=O)Nc1cc2c(-c3ccc4c(n3)C3(CCOC3)OC(=O)N4C)cn(C)c2cn1 (stereo not drawn) [Example 10, N-(1-Methyl-3-(1′-Methyl-2′-Oxo-1′,2′,4,5-Tetrahydro-2H-Spiro[Furan-3,4′-Pyrido[3,2-d][1,3]Oxazin]-6′-yl)-1H-Pyrrolo[2,3-c]Pyridin-5-yl)Acetamide]
The IC50 of the first is lower: 104 nM for the first, over 1000 nM for the second. The first is the more potent here.

Compound `COCCCCOc1cc(-c2cn(C)c3cnc(NC(C)=O)cc23)nc2c1CCOC21CCOC1` (stereo not drawn) [Example 28, N-(3-(4′-(4-Methoxybutoxy)-4,5,5′,6′-Tetrahydro-2H-Spiro[Furan-3,8′-Pyrano[3,4-b]Pyridin]-2′-yl)-1-Methyl-1H-Pyrrolo[2,3-c]Pyridin-5-yl)Acetamide] has an IC50 of 12.9 nM.
